{"source": "ChEMBL document CHEMBL1159209", "about": "“Antineoplastic agents, 294. Variations in the formation of pancratistatin and related isocarbostyrils in Hymenocallis littoralis” (J Nat Prod, 1995)", "key": {"P388": {"tested_on": "P388", "test": "In vivo cytotoxicity against mouse P388 cells", "assay_type": "functional, organism-based"}, "M5076": {"tested_on": "M5076", "test": "In vivo cytotoxicity against mouse M5076 cells", "assay_type": "functional, organism-based"}}, "note": "Active and inactive are the calls of the source. The calls are words filed in the database; no cut-off is given here."}
{"smiles": "O=C1N[C@H]2[C@H](O)[C@H](O)[C@@H](O)[C@H](O)[C@@H]2c2cc3c(c(O)c21)OCO3", "values": [{"measurement": "Activity", "setting": "P388", "value": "Active"}, {"measurement": "Activity", "setting": "M5076", "value": "Active"}]}
